Measured values taken from article PMC3781147 (PLoS ONE, 2013).

How the values were obtained:
[1] = test system: NOP receptors on rat mesenteric microvascular endothelium; test: Intravital microscopy study A: FITC-N/OFQ binding in mesenteric microcirculation; type: in vivo, rat (male Wistar); details: n=5
mean arterial pressure = test: Mean arterial pressure in anesthetised rats (study B); type: in vivo, rat (male Wistar)
heart rate = test: Heart rate in anesthetised rats (study B); type: in vivo, rat (male Wistar)
mesenteric arterioles = test: Intravital microscopy study B: arteriole diameter; type: in vivo, rat (male Wistar); details: n=6
mesenteric venules = test: Intravital microscopy study B: venule diameter; type: in vivo, rat (male Wistar)
[2] = test system: post-capillary venules (<40 µm); test: Intravital microscopy study B: macromolecular leak of FITC-BSA; type: in vivo, rat (male Wistar); details: n=6
[3] = test system: leukocyte rolling in post-capillary venules (<40 µm); test: Intravital microscopy study B: leukocyte rolling; type: in vivo, rat (male Wistar); details: n=6
[4] = test system: cecal ligation and puncture (CLP) model of sepsis; details: 0.03 mg kg^-1, rats; improved from approximately 30%; cited from earlier work
Description: (§1) Only one study has previously utilised the selective NOP antagonist [Nphe^1, Arg^14,Lys^15]

[5] = test system: hypothalamic pituitary adrenal stress response; details: UFP-101 i.c.v.; cited from earlier work
Description: as §1

plasma TNF-α and IL-1β = details: 0.03 mg kg^-1 UFP-101; cited from earlier work
Description: as §1

MAP = details: UFP-101 i.c.v.; cited from earlier work
Description: (§2) Further studies likewise reported no differences in MAP between NOP^-/- and wild-type mice. However, our findings of tachycardia are in contrast to Burmeister & Kapusta. […] In ...

[6] = test system: heart rate, renal sympathetic nerve activity, MAP; details: 300 pmol UFP-101 into PVN, conscious Sprague-Dawley rats; cited from earlier work
Description: as §2

[7] = test system: rat mesenteric microcirculation; details: unpublished data within previous studies; cited from earlier work
Description: Despite this, as part unpublished data within previous studies we also observed vasoconstriction with UFP-101 [9]. Compared to larger blood vessels the mesenteric microcirculation as studied here (<40 µm) receives little neural control. Thu ...

Molecule: CC(C)C[C@H](NC(=O)[C@H](CCCCN)NC(=O)[C@H](CCCNC(=N)N)NC(=O)[C@H](C)NC(=O)[C@H](CO)NC(=O)[C@H](CCCCN)NC(=O)[C@H](CCCNC(=N)N)NC(=O)[C@H](C)NC(=O)CNC(=O)[C@@H](NC(=O)[C@H](Cc1ccccc1)NC(=O)CNC(=O)CNC(=O)[C@@H](N)Cc1ccccc1)[C@@H](C)O)C(=O)N[C@@H](C)C(=O)N[C@@H](CC(N)=O)C(=O)N[C@@H](CCC(N)=O)C(=O)N[C@@H](CCCCNC(=S)Nc1ccc2c(c1)C(=O)OC21c2ccc(O)cc2Oc2cc(O)ccc21)C(N)=O [FITC-N/OFQ, [Lys(FITC)^18]N/OFQ-NH2]
- Binding to mesenteric microvascular endothelium ([1]; 200 nM kg^-1 FITC-N/OFQ into mesenteric artery, control rats): bound to specific sites on the endothelium of arterioles
- Time course of decay of FITC fluorescence with vs without N/OFQ ([1]; gray level over 60 s, 200 nM kg^-1 FITC-N/OFQ with (T-15) and without (T0) 200 nM.kg^-1 N/OFQ): The time courses were significantly different

Molecule: [Nphe^1, Arg^14,Lys^15] N/OFQ-NH2 [UFP-101]
- Effect on MAP (mean arterial pressure; UFP-101 150 nM kg^-1 i.v. alone (no LPS), n=6): no significant effect on MAP
- Effect on LPS-induced hypotension (mean arterial pressure; UFP-101 i.v., LPS rats): no reversal of the tachycardia or mild hypotension induced by LPS
- Heart rate, T40 (heart rate; UFP-101 150 nM kg^-1 i.v. alone (no LPS), median (IQR), n=6, control 330 (308 to 330), p=0.04): 375 bpm
- Effect on LPS-induced heart rate increase (heart rate; UFP-101 150 nM kg^-1 i.v. in LPS rats, T40, n=6, p=0.004): not altered by the addition of UFP-101
- Effect on LPS-induced tachycardia (heart rate; UFP-101 i.v., LPS rats): no reversal of the tachycardia
- Arteriole diameter, T40, UFP-101 (mesenteric arterioles; UFP-101 150 nM kg^-1 i.v. alone (no LPS), median (IQR), control 16.2 (10.9 to 17.7), p=0.004, difference also present initially): 7.1 µm
- Venule diameter, UFP-101 (mesenteric venules; UFP-101 150 nM kg^-1 i.v. alone (no LPS), T40, median (IQR), n=6, control 19.1 (17.8 to 20.8), p=0.001, difference also present initially): 9.7 µm
- Effect on LPS-induced venule vasodilation (mesenteric venules; UFP-101 150 nM kg^-1 i.v., LPS rats): reduced vasodilation of venules in response to LPS
- Macromolecular leak, T40, LPS + UFP-101 ([2]; 150nmol.kg^-1 UFP-101 i.v. in LPS rats, median (IQR), not significantly different from controls (p=0.063)): -34.9%
- Effect on macromolecular leak, no LPS ([2]; UFP-101 150 nmol kg^-1 i.v. alone, p=0.151): no effect
- Leukocyte rolling, T40, LPS + UFP-101 ([3]; 150nmol.kg^-1 UFP-101 i.v. in LPS rats, median (IQR), not significantly different from controls (p=0.117)): 0 per min
- Effect on leukocyte rolling, no LPS ([3]; UFP-101 150 nmol kg^-1 i.v. alone, p=0.394): no effect
- Survival in CLP, UFP-101 [4]: ~65%
- HPA stress response to LPS [5]: reduced the hypothalamic pituitary adrenal stress response to LPS
- Plasma TNF-α and IL-1β in CLP (plasma TNF-α and IL-1β): reduced plasma concentrations of TNF-α and IL-1β
- Effect on MAP, i.c.v. mice (MAP): no effect on MAP
- Heart rate and renal sympathetic nerve activity [6]: increased heart rate and renal sympathetic nerve activity
- MAP after PVN injection [6]: non-significant increase in MAP
- Vessel constriction [7]: vasoconstriction

Molecule: lipopolysaccharide [LPS]
- Mean arterial pressure, T40 (mean arterial pressure; LPS i.v. -24 h 1 mg kg^-1, -2 h 0.5 mg kg^-1, median (interquartile range), n=6, control 105 (95 to 110), p=0.429): 85 mmHg
- Heart rate change with LPS, T40 (heart rate; LPS i.v. -24 h 1 mg kg^-1, -2 h 0.5 mg kg^-1, n=6, p=0.004): significant increase in heart rate
- Arteriole diameter change with LPS (mesenteric arterioles; LPS i.v. -24 h and -2 h, p=0.057): diameter changes in arterioles were not significant
- Venule diameter, T40, LPS (mesenteric venules; LPS i.v. -24 h and -2 h, median (IQR), n=6, control 19.1 (17.8 to 20.8), p=0.002): 29.1 µm
- Macromolecular leak, T40, LPS ([2]; LPS i.v. -24 h and -2 h, % change in interstitial FITC-BSA fluorescence from baseline, median (IQR), control 5.3 (-5.9 to 11.8), p=0.008): 95.3%
- Leukocyte rolling, T40, LPS ([3]; LPS i.v. -24 h and -2 h, median (IQR), control 3.0 (0.8 to 3.8), p=0.003): 7.0 per min
